Results from ChEMBL document CHEMBL3739316, “Novel orally active inhibitors of β-1,3-glucan synthesis derived from enfumafungin” (Bioorg Med Chem Lett, 2015).
Values after ≈ are worked out from the molar mass of the structure shown.

Tests used:
Beta-1,3-glucan synthase = molecular target: T1, Beta-1,3-glucan synthase (Candida albicans, UniProt O13383); assay: Displacement of UDP-[3H]glucose from beta-1,3-glucan synthase in Candida albicans MY1055 microsomal membranes incubated for 2 hrs
T1 sequence (O13383 whole entry): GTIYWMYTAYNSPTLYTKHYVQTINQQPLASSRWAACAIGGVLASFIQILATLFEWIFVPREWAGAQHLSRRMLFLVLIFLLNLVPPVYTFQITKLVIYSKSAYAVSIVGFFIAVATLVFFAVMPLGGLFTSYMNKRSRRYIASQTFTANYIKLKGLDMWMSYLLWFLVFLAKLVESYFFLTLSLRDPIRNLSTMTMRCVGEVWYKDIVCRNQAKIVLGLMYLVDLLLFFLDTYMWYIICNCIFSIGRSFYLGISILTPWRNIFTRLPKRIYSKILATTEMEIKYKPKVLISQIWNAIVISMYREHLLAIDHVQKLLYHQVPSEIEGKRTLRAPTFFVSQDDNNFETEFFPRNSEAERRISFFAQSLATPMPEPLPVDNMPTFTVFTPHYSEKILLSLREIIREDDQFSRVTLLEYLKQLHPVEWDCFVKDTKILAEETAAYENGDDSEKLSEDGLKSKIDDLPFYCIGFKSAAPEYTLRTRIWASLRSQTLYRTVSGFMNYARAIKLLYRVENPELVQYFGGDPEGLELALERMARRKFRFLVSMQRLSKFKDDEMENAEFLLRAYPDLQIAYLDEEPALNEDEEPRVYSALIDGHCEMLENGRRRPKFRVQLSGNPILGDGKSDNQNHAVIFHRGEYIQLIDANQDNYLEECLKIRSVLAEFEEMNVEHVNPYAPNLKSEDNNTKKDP

Candida albicans [1] = assay: Antifungal activity against Candida albicans MY1055 in DBA/2 mouse candidiasis model assessed as change in CFU per gram of kidney at 12.5 mg/kg, po bid after 7 days by Target Organ Kidney Assay relative to sham treated control; type: functional
Candida albicans [2] = assay: Antifungal activity against Candida albicans MY1055 after 24 hrs by liquid microdilution assay; type: functional; settings: MY1055, 24 h
Candida albicans [3] = assay: Antifungal activity against Candida albicans MY1055 in DBA/2 mouse candidiasis model assessed as change in CFU per gram of kidney at 25 mg/kg, po bid after 7 days by Target Organ Kidney Assay relative to sham treated control; type: functional
[4] = Oral bioavailability in mouse; type: ADME, organism-based; settings: in vivo
Candida albicans [5] = assay: Antifungal activity against Candida albicans MY1055 in DBA/2N mouse candidiasis model assessed as mouse survival at 12.5 mg/kg, ip bid after 7 days by Target Organ Kidney Assay relative to sham treated control; type: functional; settings: 168 h
Mus musculus [6] = assay: AUC (0 to 24 hrs) in DBA/2J mouse assessed as total metabolites at 10 mg/kg, po; type: ADME, organism-based; settings: in vivo
Aspergillus fumigatus = assay: Antifungal activity against Aspergillus fumigatus MF5668 after 24 hrs by liquid microdilution assay; type: functional; settings: MF5668, 24 h, read-out: MEC
Candida albicans [7] = assay: Antifungal activity against Candida albicans MY1055 in DBA/2 mouse candidiasis model assessed as change in CFU per gram of kidney at 12.5 mg/kg, po bid after 4 days by Target Organ Kidney Assay relative to sham treated control; type: functional
Candida albicans [8] = assay: Antifungal activity against Candida albicans MY1055 in DBA/2 mouse candidiasis model assessed as change in CFU per gram of kidney at 6.25 mg/kg, po bid after 4 days by Target Organ Kidney Assay relative to sham treated control; type: functional
Candida albicans [9] = assay: Antifungal activity against Candida albicans MY1055 in DBA/2 mouse candidiasis model assessed as change in CFU per gram of kidney at 25 mg/kg, po bid after 4 days by Target Organ Kidney Assay relative to sham treated control; type: functional
Candida albicans [10] = assay: Antifungal activity against Candida albicans MY1055 in DBA/2N mouse candidiasis model assessed as mouse survival at 12.5 mg/kg, po bid after 7 days by Target Organ Kidney Assay relative to sham treated control; type: functional; settings: 168 h
Candida albicans [11] = assay: Antifungal activity against Candida albicans MY1055 in DBA/2 mouse candidiasis model assessed as change in CFU per gram of kidney at 6.25 mg/kg, po bid after 7 days by Target Organ Kidney Assay relative to sham treated control; type: functional
Mus musculus [12] = assay: AUC (0 to 24 hrs) in DBA/2J mouse assessed as metabolite 13c at 10 mg/kg, po; type: ADME, organism-based; parameters: dose 10 mg/kg, time < 24 hr, route oral; settings: in vivo
Candida albicans [13] = assay: Antifungal activity against Candida albicans MY1055 after 24 hrs by liquid microdilution assay in presence of human serum; type: functional; settings: MY1055, 24 h
Candida albicans [14] = assay: Antifungal activity against Candida albicans MY1055 in DBA/2N mouse candidiasis model assessed as reduction of fungal burden after 7 days; type: functional; settings: MY1055, 168 h
Candida albicans [15] = assay: Antifungal activity against Candida albicans MY1055 in DBA/2N mouse candidiasis model assessed as mouse survival at 25 mg/kg, po bid after 7 days by Target Organ Kidney Assay relative to sham treated control; type: functional; settings: 168 h
[16] = AUC (0 to 24 hrs) in DBA/2J mouse at 10 mg/kg, po; type: ADME, organism-based; parameters: dose 10 mg/kg, time < 24 hr, route oral; settings: in vivo
Candida albicans [17] = assay: Antifungal activity against Candida albicans MY1055 in DBA/2N mouse candidiasis model assessed as mouse survival at 6.25 mg/kg, po bid after 4 days by Target Organ Kidney Assay relative to sham treated control; type: functional; settings: 96 h
Candida albicans [18] = assay: Antifungal activity against Candida albicans MY1055 in DBA/2 mouse candidiasis model assessed as change in CFU per gram of kidney at 12.5 mg/kg, ip bid after 7 days by Target Organ Kidney Assay relative to sham treated control; type: functional
Mus musculus [19] = assay: Dose normalized AUC in orally dosed mouse; type: ADME, organism-based; settings: in vivo, po
Rattus norvegicus = assay: Dose normalized AUC in orally dosed rat; type: ADME, organism-based; settings: in vivo, po
[20] = Oral bioavailability in rat; type: ADME, organism-based; settings: in vivo
Candida albicans [21] = assay: Antifungal activity against Candida albicans MY1055 in DBA/2 mouse candidiasis model assessed as change in CFU per gram of kidney at 6.25 mg/kg, ip bid after 4 days by Target Organ Kidney Assay relative to sham treated control; type: functional
Candida albicans [22] = assay: Antifungal activity against Candida albicans MY1055 in DBA/2 mouse candidiasis model assessed as change in CFU per gram of kidney at 25 mg/kg, ip bid after 4 days by Target Organ Kidney Assay relative to sham treated control; type: functional
Candida albicans [23] = assay: Antifungal activity against Candida albicans MY1055 in DBA/2 mouse candidiasis model assessed as change in CFU per gram of kidney at 12.5 mg/kg, ip bid after 4 days by Target Organ Kidney Assay relative to sham treated control; type: functional
Mus musculus [24] = assay: Drug level in DBA/2J mouse treated with 13f at 10 mg/kg, po; type: ADME, organism-based; settings: in vivo

SMILES | IC50 (Beta-1,3-glucan synthase) [nM] | Activity (Candida albicans [1]) [deltalog10CFU] | MIC (Candida albicans [2]) [µg/mL] | Activity (Candida albicans [3]) [deltalog10CFU] | bioavailability [4] [%] | survival at 12.5 mg/kg (Candida albicans [5]) [%] | Drug uptake (Mus musculus [6]) [%] | minimal effective concentration (Aspergillus fumigatus) [µg/mL] | Activity (Candida albicans [7]) [deltalog10CFU] | Activity (Candida albicans [8]) [deltalog10CFU] | Activity (Candida albicans [9]) [deltalog10CFU] | survival at 12.5 mg/kg (Candida albicans [10]) [%] | Activity (Candida albicans [11]) [deltalog10CFU] | AUC (Mus musculus [12]) [µM·h] | MIC (Candida albicans [13]) [µg/mL] | ED99 (Candida albicans [14]) [mg/kg] | survival at 25 mg/kg (Candida albicans [15]) [%] | AUC(0-t) at 24 h [16] [µM·h] | survival at 6.25 mg/kg (Candida albicans [17]) [%] | AUC/dose (Mus musculus [19]) [µM·kg·h/mg] | also measured
CCN[C@@](C)(CO[C@H]1[C@H](n2nnc(N)n2)C[C@@]23COCC1(C)[C@@H]2CC[C@H]1C3=CC[C@@]2(C)[C@H](C(=O)O)[C@@](C)([C@H](C)C(C)C)CC[C@]12C)C(C)C | 7.32 | -2.54 | 0.06 (≈ 0.0878 µM) | -2.8 | 11 | 100 | 6.4 | < 0.03 | -2.6 | -0.7 | -2.8 | 60 | 0.72 | 0.29 | 8 | 13 | 100 | 4.22 | 20 | 0.44 | Activity (Candida albicans [18]): -3.26 deltalog10CFU
CC(=O)O[C@@H]1C[C@@]23COCC(C)([C@H]1O[C@@H]1O[C@H](CO)[C@@H](O)[C@H](O)[C@H]1O)[C@@H]2CC[C@H]1C3=CC[C@@]2(C)[C@H](C(=O)O)[C@@](C)([C@H](C)C(C)C)CC[C@]12C | 86.6 | – | 0.25 (≈ 0.361 µM) | – | – | – | – | < 0.03 | – | – | – | – | – | – | 8 | – | – | – | – | – | AUC/dose (Rattus norvegicus): 0.01 µM·kg·h/mg; bioavailability [20]: 1%
CC(=O)O[C@@H]1C[C@@]23COCC(C)([C@H]1OCCN)[C@@H]2CC[C@H]1C3=CC[C@@]2(C)[C@H](C(=O)O)[C@@](C)([C@H](C)C(C)C)CC[C@]12C | 81.9 | – | 1 (≈ 1.74 µM) | – | 24 | – | – | < 0.03 | – | – | – | – | – | – | 32 | – | – | – | – | 0.54 | Activity (Candida albicans [21]): -0.3 deltalog10CFU; Activity (Candida albicans [22]): -0.7 deltalog10CFU; Activity (Candida albicans [23]): -0.4 deltalog10CFU
CN[C@@](C)(CO[C@H]1[C@H](n2nnc(N)n2)C[C@@]23COCC1(C)[C@@H]2CC[C@H]1C3=CC[C@@]2(C)[C@H](C(=O)O)[C@@](C)([C@H](C)C(C)C)CC[C@]12C)C(C)C | 2.99 | 0.89 | < 0.03 | -2.54 | 9 | 100 | 0.5 | < 0.03 | -1.9 | -1.5 | -2.5 | 20 | -0.61 | 0.005 | 4 | 19 | 100 | 1.06 | 20 | 0.12 | Drug metabolism (Mus musculus [24]): metabolite_detected; Activity (Candida albicans [18]): -3.89 deltalog10CFU
